Data as given in publication PMC9999251, “Pyrazole-based lamellarin O analogues: synthesis, biological evaluation and structure–activity relationships” (RSC Advances, 2023).

Experiments:
[1] = system: SW480 cells; test: Cell viability (MTT assay), SW480; format: cell-based; conditions: Homo sapiens, SW480, 96 h, 96 h treatment, read-out: GI50 ± SD SW480
Description: (§1) SW480 (human colon adenocarcinoma, adherent, epithelial, ATCC number: CCL-228), HT29 (human colon adenocarcinoma, adherent, epithelial, ATCC number: HTB-38), and HCT116 (human colon adenocarcinoma, adherent, epithelial-like, ATCC number: CCL-247) cells were maintained in RPMI-1640 medium (Sigma-Aldrich). Medium was supplemented with heat-inactivated FBS (Biowest), penicillin–streptomycin (Sigma; with 10 000 units penicillin and 10 mg streptomycin per mL in 0.9% NaCl) and L-glutamine (Sigma; 200 mM solution). Cell cultures were cultivated at 37 °C, maintaining a humidified atmosphere consisting of 5% CO2. Gibco™ trypsin–EDTA (0.05%) was used for cell passage.
(§2) To evaluate cell viability, SW480, HT29, and HCT116 cells were harvested from culture flasks by trypsinization and seeded into 96-well plates in 4000 cells per well, 3000 cells per well and 4000 cells per well densities, respectively. After 24 h preincubation period, cells were treated in triplicates with nine different doses of each compound (6a–o and 7a–c) for 96 h. After treatment compound solutions were replaced with MTT solution (MTT reagent in PBS, […]) diluted in a 6 : 1 ratio in non-supplemented RPMI-1640 medium and were additionally incubated for 2 h. After incubation, the medium was removed, and formazan product was dissolved in DMSO. Optical densities were measured at 550 nm with TECAN Infinite® M200 PRO microplate reader using a reference wavelength of 690 nm to correct unspecific absorption. The quantity of viable cells was normalized to untreated controls. The GI50 values were calculated from dose–response curves.

[2] = target: T1, human serum albumin (Homo sapiens, UniProt P02768); test: Plasma protein binding (PPB), HPLC on albumin-bound stationary phase; format: in vitro ADME; conditions: pH 7.4, binding to human serum albumin, HPLC method
T1 construct: purchased Chiral Technologies, DAICEL Group, Europe SAS, France CHIRALPAK®HAS (50 × 3 mm, 5 μm)
T1 sequence (P02768 25-609): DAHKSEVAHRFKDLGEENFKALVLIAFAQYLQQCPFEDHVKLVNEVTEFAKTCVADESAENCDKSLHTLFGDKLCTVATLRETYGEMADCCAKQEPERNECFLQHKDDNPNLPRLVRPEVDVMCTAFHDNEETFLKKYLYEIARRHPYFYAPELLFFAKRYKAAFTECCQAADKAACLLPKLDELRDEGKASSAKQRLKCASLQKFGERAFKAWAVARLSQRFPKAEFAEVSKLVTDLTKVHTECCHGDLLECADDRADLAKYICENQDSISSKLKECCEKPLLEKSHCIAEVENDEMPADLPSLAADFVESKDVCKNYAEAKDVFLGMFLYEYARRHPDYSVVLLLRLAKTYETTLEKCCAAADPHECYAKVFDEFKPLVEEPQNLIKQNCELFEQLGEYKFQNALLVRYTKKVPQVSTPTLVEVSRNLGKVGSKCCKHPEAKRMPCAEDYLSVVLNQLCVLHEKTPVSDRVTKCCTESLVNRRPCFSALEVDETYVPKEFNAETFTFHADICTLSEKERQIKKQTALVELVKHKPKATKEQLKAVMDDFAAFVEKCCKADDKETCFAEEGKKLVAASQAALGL
Description: Retention times of the analytes were measured with Shimadzu HPLC system on the CHIRALPAK®HAS stationary phase (50 × 3 mm, 5 μm, Chiral Technologies, DAICEL Group, Europe SAS, France). The mobile phase A consisted of 50 mM aqueous ammonium acetate buffer (pH 7.4) and phase B of 2-propanol according to Valko et al.[65] Analysis was performed at prolonged 1 mL min^−1 flow rate in the linear gradient. Retention capacity factors (k′) were calculated by using DMSO or a substance with 0% HAS binding for systems' dead time (Rt0). The system was calibrated by injecting the reference compounds: acetylsalicylic acid (CAS 69-72-7), betamethasone (CAS 378-44-9), budesonide (CAS 5133-22-3), carbamazepine (CAS 298-46-4), cimetidine (CAS 51481-61-9), ciprofloxacin (CAS 85721-33-1), indomethacin (CAS 53-86-1), isoniazid (CAS 54-85-3), metronidazole (CAS 443-48-1), nicardipine (CAS 55985-32-5), nizatidine (CAS 76963-41-2) and warfarin (CAS 81-81-2) obtained from Sigma-Aldrich, diclofenac (CAS 15307-86-5) from EMD Chemicals Inc., flumazenil (CAS 78755-81-4) from ABX and ketoprofen (CAS 22071-15-4) from LKT Labs. The logarithmic capacity factors of the references' Rt (log(k′)) on the HSA column were plotted against the %PPB values from literature. The slope and the intercept were used to convert the log(k′) of the compounds (6a, c, f, h, m–o) to %PPB using the regression equation.[66]

[3] = Determination of HPLC–log P; format: physicochemical; conditions: reversed-phase HPLC on apHera C18 column; methanol / 0.01 M phosphate buffer pH 7.4; mean ± SD
Description: HPLC–log P values were determined using Shimadzu HPLC system equipped with apHera C18 column (10 × 6 mm, 5 μm, Supelco, Bellefonte, PA, USA). Each sample was dissolved in the internal standard mixture, consisting of triphenylene (99.9%, Carl Roth) and toluene (≥98%, Sigma-Aldrich). Analysis was performed at 1.5 mL min^−1 flow rate in the linear gradient where mobile phase consisted of methanol and 0.01 M phosphate buffer (pH 7.4). The HPLC–log P values were calculated from the measured retention times using previously published equation.[57]

[4] = system: HT29 cells; test: Cell viability (MTT assay), HT29; format: cell-based; conditions: Homo sapiens, HT-29, 96 h treatment, read-out: GI50 ± SD HT29
Description: as §1, §2

[5] = system: HCT116 cells; test: Cell viability (MTT assay), HCT116; format: cell-based; conditions: Homo sapiens, HCT-116, 96 h treatment, read-out: GI50 ± SD HCT116
Description: as §1, §2

Row | melting point [°C] | GI50 [1] [µM] | fraction unbound [2] | chromatographic logP [3] | GI50 [4] [µM] | GI50 [5] [µM] | Compound
1 | 143 to 144 | > 20 |  | 3.803 ± 0.012 | > 20 | > 20 | CCOC(=O)c1c(-c2ccccc2)c(-c2ccccc2)nn1CC(=O)c1ccc(O)cc1 [Compound 6e, Ethyl 1-[2-(4-hydroxyphenyl)-2-oxoethyl]-3,4-diphenyl-1H-pyrazole-5-carboxylate]
2 | 62 to 63 | > 20 | 0.061 | 4.462 ± 0.005 | > 20 | 2.29 ± 0.218 | CCOC(=O)c1c(-c2ccc(OC)cc2)c(-c2ccc(OC)cc2)nn1CC(=O)c1ccccc1 [Compound 6f, Ethyl 3,4-bis(4-methoxyphenyl)-1-(2-oxo-2-phenylethyl)-1H-pyrazole-5-carboxylate]
3 | 132 to 133 | > 20 |  | 4.784 ± 0.005 | > 20 | > 20 | CCOC(=O)c1c(-c2ccc(OC)cc2)c(-c2ccc(OC)cc2)nn1CC(=O)c1ccc(Cl)cc1 [Compound 6i, Ethyl 1-[2-(4-chlorophenyl)-2-oxoethyl]-3,4-bis(4-methoxy-phenyl)-1H-pyrazole-5-carboxylate]
4 | 81 to 82 | 1.64 ± 0.022 | 0.047 | 4.564 ± 0.004 | 6.78 ± 0.463 | 2.1 ± 0.198 | CCOC(=O)c1c(-c2ccc(OC)cc2)c(-c2ccc(F)cc2)nn1CC(=O)c1ccc(F)cc1 [Compound 6n, Ethyl 3-(4-fluorophenyl)-1-[2-(4-fluorophenyl)-2-oxoethyl]-4-(4-methoxyphenyl)-1H-pyrazole-5-carboxylate]
5 | 105 to 106 | 2.09 ± 0.032 | 0.029 | 4.598 ± 0.004 | 6.67 ± 2.12 | 2.36 ± 0.039 | CCOC(=O)c1c(-c2ccc(F)cc2)c(-c2ccc(F)cc2)nn1CC(=O)c1ccc(F)cc1 [Compound 6o, Ethyl 3,4-bis(4-fluorophenyl)-1-[2-(4-fluorophenyl)-2-oxoethyl]-1H-pyrazole-5-carboxylate]
6 | 114 to 115 |  |  | 4.327 ± 0.007 | 9.72 ± 3.71 | 2.7 ± 0.689 | COC(=O)c1c(-c2ccccc2)c(-c2ccccc2)nn1CC(=O)c1ccc(F)cc1 [Compound 7c, Methyl 1-[2-(4-fluorophenyl)-2-oxoethyl]-3,4-diphenyl-1H-pyrazole-5-carboxylate]

Second part, the compound before the results:

Row | Compound | melting point [°C] | GI50 [1] [µM] | fraction unbound [2] | chromatographic logP [3] | GI50 [4] [µM] | GI50 [5] [µM]
7 | O=C(Cn1nc(-c2ccccc2)c(-c2ccccc2)c1C(=O)O)c1ccccc1 [6a′, 1-(2-Oxo-2-phenylethyl)-3,4-diphenyl-1H-pyrazole-5-carboxylic acid] | 209 to 210 |  |  |  |  | 
8 | CCOC(=O)c1c(-c2ccccc2)c(-c2ccccc2)nn1CC(=O)c1ccccc1 [Compound 6a, Ethyl 1-(2-oxo-2-phenylethyl)-3,4-diphenyl-1H-pyrazole-5-carboxylate] | 112 to 113 | > 20 | 0.046 | 4.381 ± 0.002 | > 20 | 5.46 ± 0.393
9 | CCOC(=O)c1c(-c2ccccc2)c(-c2ccccc2)nn1CC(=O)c1ccc(OC)cc1 [Compound 6b, Ethyl 1-[2-(4-methoxyphenyl)-2-oxoethyl]-3,4-diphenyl-1H-pyrazole-5-carboxylate] | 144 to 145 | > 20 |  | 4.468 ± 0.006 | > 20 | > 20
10 | CCOC(=O)c1c(-c2ccccc2)c(-c2ccccc2)nn1CC(=O)c1ccc(Cl)cc1 [Compound 6d, Ethyl 1-[2-(4-chlorophenyl)-2-oxoethyl]-3,4-diphenyl-1H-pyrazole-5-carboxylate] | 135 to 136 | > 20 |  | 4.711 ± 0.006 | > 20 | 14.5 ± 3.92
11 | CCOC(=O)c1c(-c2ccc(OC)cc2)c(-c2ccc(OC)cc2)nn1CC(=O)c1ccc(OC)cc1 [Compound 6g, Ethyl 3,4-bis(4-methoxyphenyl)-1-[2-(4-methoxyphenyl)-2-oxoethyl]-1H-pyrazole-5-carboxylate] | 67 to 68 | > 20 |  | 4.531 ± 0.004 | > 20 | > 20
12 | CCOC(=O)c1c(-c2ccc(OC)cc2)c(-c2ccc(OC)cc2)nn1CC(=O)c1ccc(F)cc1 [Compound 6h, Ethyl 1-[2-(4-fluorophenyl)-2-oxoethyl]-3,4-bis(4-methoxy-phenyl)-1H-pyrazole-5-carboxylate] | 104 to 105 | 4.76 ± 2.33 | 0.062 | 4.531 ± 0.006 | 4.76 ± 2.33 | 2.07 ± 1.45
13 | CCOC(=O)c1c(-c2ccccc2)c(-c2ccc(F)cc2)nn1CC(=O)c1ccccc1 [Compound 6j, Ethyl 3-(4-fluorophenyl)-1-(2-oxo-2-phenylethyl)-4-phenyl-1H-pyrazole-5-carboxylate] | 135 to 136 | 9.24 ± 2.15 |  | 4.49 ± 0.006 | 13.8 ± 0.861 | 3.75 ± 1.06
14 | CCOC(=O)c1c(-c2ccc(F)cc2)c(-c2ccc(F)cc2)nn1CC(=O)c1ccccc1 [Compound 6k, Ethyl 3,4-bis(4-fluorophenyl)-1-(2-oxo-2-phenylethyl)-1H-pyrazole-5-carboxylate] | 103 to 104 | 7.81 ± 2.02 |  | 4.546 ± 0.005 | 11.1 ± 2.62 | 3.39 ± 0.62
15 | CCOC(=O)c1c(-c2ccc(OC)cc2)c(-c2ccc(F)cc2)nn1CC(=O)c1ccccc1 [Compound 6l, Ethyl 3-(4-fluorophenyl)-4-(4-methoxyphenyl)-1-(2-oxo-2-phenylethyl)-1H-pyrazole-5-carboxylate] | 87 to 88 | 8.28 ± 2.34 |  | 4.499 ± 0.006 | > 20 | 5.05 ± 1.16
16 | COC(=O)c1c(-c2ccccc2)c(-c2ccccc2)nn1CC(=O)c1ccccc1 [Compound 7a, Methyl 1-(2-oxo-2-phenylethyl)-3,4-diphenyl-1H-pyrazole-5-carboxylate] | 138 to 139 | > 20 |  | 4.279 ± 0.005 | > 20 | > 20
17 | COC(=O)c1c(-c2ccccc2)c(-c2ccccc2)nn1CC(=O)c1ccc(OC)cc1 [Compound 7b, Methyl 1-[2-(4-methoxyphenyl)-2-oxoethyl]-3,4-diphenyl-1H-pyrazole-5-carboxylate] | 163 to 164 | > 20 |  | 4.347 ± 0.007 | > 20 | > 20
